This is an account of results in the supplement of paper PMC10307832.

Assay in all cases: relative viability (nuclei count vs DMSO), 5 days (fraction); higher = more cells survive
Compound in the assay “4EGI-1 + Vorinostat”: O=C(O)C(Cc1ccccc1[N+](=O)[O-])=NNc1nc(-c2ccc(Cl)c(Cl)c2)cs1 (mixture of isomers) [4EGI-1] + O=C(CCCCCCC(=O)Nc1ccccc1)NO [Vorinostat] (partner 1 µM)
An outline of the steps:
(§1)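 Lung cancer cell lines, seeded in 1536-well plates, were treated the following day by pin tool with a single drug or with five library-drug doses (not always all listed) in √10 steps on top of a fixed anchor-drug dose. Cells were fixed and nuclei stained in one step after 5 days, and nuclei were counted. Relative viability is the nuclei count for treated wells divided by that for vehicle wells, reported as medians of duplicate plates.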

Compound in the assay “4EGI-1 + Trametinib”: O=C(O)C(Cc1ccccc1[N+](=O)[O-])=NNc1nc(-c2ccc(Cl)c(Cl)c2)cs1 (mixture of isomers) [4EGI-1] + CC(=O)Nc1cccc(-n2c(=O)n(C3CC3)c(=O)c3c(Nc4ccc(I)cc4F)n(C)c(=O)c(C)c32)c1 [Trametinib] (partner 0.02 µM)
The method, boiled down:
as §1

Compound in the assay “4EGI-1 + Pictilisib”: O=C(O)C(Cc1ccccc1[N+](=O)[O-])=NNc1nc(-c2ccc(Cl)c(Cl)c2)cs1 (mixture of isomers) [4EGI-1] + CS(=O)(=O)N1CCN(Cc2cc3nc(-c4cccc5[nH]ncc45)nc(N4CCOCC4)c3s2)CC1 [Pictilisib] (partner 1 µM)
The method, boiled down: as §1

Compound in the assay “XMD8-85 + Phenformin”: CN1CCN(CC1)C2=CC(=C(C=C2)NC3=NC=C4C(=N3)N(C5=CC=CC=C5C(=O)N4C)C)OC [XMD8-85] + N=C(N)NC(=N)NCCc1ccccc1 [Phenformin] (partner 250 µM)
The method, boiled down: as §1

NCI-H647: the relative viability with 4EGI-1 + Vorinostat (first compound 0.5 µM) was 0.837; in the assay with 4EGI-1 + Vorinostat (first compound 1.581 µM), 0.53; with 4EGI-1 + Vorinostat (first compound 5 µM), 0.689; in the assay with 4EGI-1 + Vorinostat (first compound 15.81 µM), 0.477; in the assay with 4EGI-1 + Vorinostat (first compound 50 µM), 0.0731; in the assay with 4EGI-1 + Trametinib (first compound 0.5 µM) it was 0.585. Moreover, the relative viability is 0.493 with 4EGI-1 + Trametinib (first compound 1.581 µM); 0.475 in the assay with 4EGI-1 + Trametinib (first compound 5 µM); 0.384 with 4EGI-1 + Trametinib (first compound 15.81 µM); 0.129 with 4EGI-1 + Trametinib (first compound 50 µM); 0.437 with 4EGI-1 + Pictilisib (first compound 0.5 µM); 0.432 with 4EGI-1 + Pictilisib (first compound 5 µM). Also, the relative viability in the assay with 4EGI-1 + Pictilisib (first compound 15.81 µM) came to 0.401; with 4EGI-1 + Pictilisib (first compound 50 µM), 0.27; in the assay with XMD8-85 + Phenformin (first compound 0.08 µM), 0.258; with XMD8-85 + Phenformin (first compound 0.253 µM), 0.522; with XMD8-85 + Phenformin (first compound 0.8 µM), 0.528; with XMD8-85 + Phenformin (first compound 2.53 µM) it was 0.465. In the assay with XMD8-85 + Phenformin (first compound 8 µM), the relative viability came out at 0.307.
Consider NCI-H727, for which the relative viability was 1.13 with 4EGI-1 + Vorinostat (first compound 0.5 µM); 0.94 with 4EGI-1 + Vorinostat (first compound 1.581 µM); 1.22 in the assay with 4EGI-1 + Vorinostat (first compound 5 µM); 1.04 in the assay with 4EGI-1 + Vorinostat (first compound 15.81 µM); 0.714 with 4EGI-1 + Vorinostat (first compound 50 µM); 0.365 in the assay with 4EGI-1 + Trametinib (first compound 0.5 µM). The relative viability in the assay with 4EGI-1 + Trametinib (first compound 1.581 µM) is 0.398; with 4EGI-1 + Trametinib (first compound 5 µM), 0.377; with 4EGI-1 + Trametinib (first compound 15.81 µM), 0.386; in the assay with 4EGI-1 + Trametinib (first compound 50 µM), 0.376; with 4EGI-1 + Pictilisib (first compound 0.5 µM), 0.382; with 4EGI-1 + Pictilisib (first compound 1.581 µM), 0.451. Moreover, the relative viability with 4EGI-1 + Pictilisib (first compound 5 µM) is 0.26; with 4EGI-1 + Pictilisib (first compound 15.81 µM), 0.344; in the assay with 4EGI-1 + Pictilisib (first compound 50 µM), 0.328; with XMD8-85 + Phenformin (first compound 0.08 µM), 0.503; in the assay with XMD8-85 + Phenformin (first compound 0.253 µM) it was 0.547; with XMD8-85 + Phenformin (first compound 0.8 µM), 0.523. Moreover, the relative viability with XMD8-85 + Phenformin (first compound 2.53 µM) worked out at 0.524; in the assay with XMD8-85 + Phenformin (first compound 8 µM) it was 0.456.
On to COR-L23, for which the relative viability with 4EGI-1 + Vorinostat (first compound 0.5 µM) turned out to be 0.672; in the assay with 4EGI-1 + Vorinostat (first compound 1.581 µM), 0.261; with 4EGI-1 + Vorinostat (first compound 5 µM), 0.618; in the assay with 4EGI-1 + Vorinostat (first compound 15.81 µM) it was 0.345; with 4EGI-1 + Vorinostat (first compound 50 µM) it was 0.103; with 4EGI-1 + Trametinib (first compound 0.5 µM) it was 0.898. The relative viability with 4EGI-1 + Trametinib (first compound 1.581 µM) came out at 0.336; with 4EGI-1 + Trametinib (first compound 5 µM) it was 0.628; with 4EGI-1 + Trametinib (first compound 15.81 µM), 0.415; in the assay with 4EGI-1 + Trametinib (first compound 50 µM), 0.16; with 4EGI-1 + Pictilisib (first compound 0.5 µM), 0.96; with 4EGI-1 + Pictilisib (first compound 1.581 µM), 0.549. For the same cell line, the relative viability was 0.827 with 4EGI-1 + Pictilisib (first compound 5 µM); 0.491 with 4EGI-1 + Pictilisib (first compound 15.81 µM); 0.135 in the assay with 4EGI-1 + Pictilisib (first compound 50 µM); 0.384 with XMD8-85 + Phenformin (first compound 0.08 µM); 0.452 with XMD8-85 + Phenformin (first compound 0.253 µM); 0.484 with XMD8-85 + Phenformin (first compound 0.8 µM). Besides, the relative viability with XMD8-85 + Phenformin (first compound 2.53 µM) came out at 0.476; in the assay with XMD8-85 + Phenformin (first compound 8 µM), 0.366.
Consider NCI-H1915, for which the relative viability is 0.536 with 4EGI-1 + Vorinostat (first compound 0.5 µM); 0.36 with 4EGI-1 + Vorinostat (first compound 1.581 µM); 0.599 in the assay with 4EGI-1 + Vorinostat (first compound 5 µM); 0.542 with 4EGI-1 + Vorinostat (first compound 15.81 µM); 0.387 in the assay with 4EGI-1 + Vorinostat (first compound 50 µM); 0.367 in the assay with 4EGI-1 + Trametinib (first compound 0.5 µM). The relative viability with 4EGI-1 + Trametinib (first compound 1.581 µM) stood at 0.234; with 4EGI-1 + Trametinib (first compound 5 µM), 0.308; in the assay with 4EGI-1 + Trametinib (first compound 15.81 µM), 0.289; with 4EGI-1 + Trametinib (first compound 50 µM), 0.245; with 4EGI-1 + Pictilisib (first compound 0.5 µM), 0.943; with 4EGI-1 + Pictilisib (first compound 1.581 µM), 0.558. The relative viability worked out at 1.03 with 4EGI-1 + Pictilisib (first compound 5 µM); 0.933 with 4EGI-1 + Pictilisib (first compound 15.81 µM); 0.66 with 4EGI-1 + Pictilisib (first compound 50 µM); 0.359 with XMD8-85 + Phenformin (first compound 0.08 µM); 0.349 with XMD8-85 + Phenformin (first compound 0.253 µM); 0.377 with XMD8-85 + Phenformin (first compound 0.8 µM). Moreover, the relative viability was 0.354 with XMD8-85 + Phenformin (first compound 2.53 µM) and 0.348 with XMD8-85 + Phenformin (first compound 8 µM).
For the cell line NCI-H2126, the relative viability in the assay with 4EGI-1 + Vorinostat (first compound 0.5 µM) is 0.756; with 4EGI-1 + Vorinostat (first compound 1.581 µM) it was 0.773; with 4EGI-1 + Vorinostat (first compound 5 µM) it was 0.819; with 4EGI-1 + Vorinostat (first compound 15.81 µM), 0.539; in the assay with 4EGI-1 + Vorinostat (first compound 50 µM), 0.646; in the assay with 4EGI-1 + Trametinib (first compound 0.5 µM), 0.552. The relative viability in the assay with 4EGI-1 + Trametinib (first compound 1.581 µM) came out at 0.553; with 4EGI-1 + Trametinib (first compound 5 µM) it was 0.506; with 4EGI-1 + Trametinib (first compound 15.81 µM), 0.463; with 4EGI-1 + Trametinib (first compound 50 µM), 0.384; with 4EGI-1 + Pictilisib (first compound 0.5 µM), 0.525; with 4EGI-1 + Pictilisib (first compound 1.581 µM) it was 0.455. Also, the relative viability with 4EGI-1 + Pictilisib (first compound 5 µM) worked out at 0.581; with 4EGI-1 + Pictilisib (first compound 15.81 µM), 0.445; with 4EGI-1 + Pictilisib (first compound 50 µM), 0.42; in the assay with XMD8-85 + Phenformin (first compound 0.08 µM), 0.524; with XMD8-85 + Phenformin (first compound 0.253 µM) it was 0.528; with XMD8-85 + Phenformin (first compound 0.8 µM) it was 0.525. In addition, the values for the relative viability in the assay with XMD8-85 + Phenformin (first compound 2.53 µM) and with XMD8-85 + Phenformin (first compound 8 µM) were 0.543 and 0.455, respectively.
NCI-H2087: the relative viability turned out to be 0.694 in the assay with 4EGI-1 + Vorinostat (first compound 0.5 µM); 0.958 with 4EGI-1 + Vorinostat (first compound 1.581 µM); 0.724 with 4EGI-1 + Vorinostat (first compound 5 µM); 0.995 with 4EGI-1 + Vorinostat (first compound 15.81 µM); 0.343 with 4EGI-1 + Vorinostat (first compound 50 µM); 0.212 in the assay with 4EGI-1 + Trametinib (first compound 0.5 µM). Also, the relative viability in the assay with 4EGI-1 + Trametinib (first compound 1.581 µM) turned out to be 0.2; in the assay with 4EGI-1 + Trametinib (first compound 5 µM), 0.234; with 4EGI-1 + Trametinib (first compound 15.81 µM), 0.2; with 4EGI-1 + Trametinib (first compound 50 µM) it was 0.126; in the assay with 4EGI-1 + Pictilisib (first compound 0.5 µM), 1.02; in the assay with 4EGI-1 + Pictilisib (first compound 1.581 µM), 0.813. In addition, the relative viability with 4EGI-1 + Pictilisib (first compound 5 µM) is 0.888; with 4EGI-1 + Pictilisib (first compound 15.81 µM), 0.626; in the assay with 4EGI-1 + Pictilisib (first compound 50 µM) it was 0.386; with XMD8-85 + Phenformin (first compound 0.08 µM), 0.495; with XMD8-85 + Phenformin (first compound 0.253 µM) it was 0.441; with XMD8-85 + Phenformin (first compound 0.8 µM) it was 0.562. Besides, the values for the relative viability with XMD8-85 + Phenformin (first compound 2.53 µM) and with XMD8-85 + Phenformin (first compound 8 µM) were 0.396 and 0.389, respectively.
With LC-2-ad, the relative viability with 4EGI-1 + Vorinostat (first compound 0.5 µM) came to 0.736; with 4EGI-1 + Vorinostat (first compound 1.581 µM) it was 0.62; with 4EGI-1 + Vorinostat (first compound 5 µM), 0.617; with 4EGI-1 + Vorinostat (first compound 15.81 µM) it was 0.356; with 4EGI-1 + Vorinostat (first compound 50 µM), 0.207; with 4EGI-1 + Trametinib (first compound 0.5 µM), 0.919. Moreover, the relative viability with 4EGI-1 + Trametinib (first compound 1.581 µM) stood at 0.886; with 4EGI-1 + Trametinib (first compound 5 µM) it was 0.855; in the assay with 4EGI-1 + Trametinib (first compound 15.81 µM) it was 0.843; in the assay with 4EGI-1 + Trametinib (first compound 50 µM), 0.595; in the assay with 4EGI-1 + Pictilisib (first compound 0.5 µM), 0.655; with 4EGI-1 + Pictilisib (first compound 1.581 µM), 0.419. Besides, the relative viability with 4EGI-1 + Pictilisib (first compound 5 µM) was found to be 0.485; with 4EGI-1 + Pictilisib (first compound 15.81 µM), 0.214; with 4EGI-1 + Pictilisib (first compound 50 µM) it was 0.142; in the assay with XMD8-85 + Phenformin (first compound 0.08 µM), 0.592; in the assay with XMD8-85 + Phenformin (first compound 0.253 µM), 0.55; in the assay with XMD8-85 + Phenformin (first compound 0.8 µM) it was 0.611. Further, the relative viability in the assay with XMD8-85 + Phenformin (first compound 2.53 µM) came to 0.595.
